Columns and labels:
[1] = Drug level in human liver microsomes treated with 4-(3-chloro-4-(hydroxymethyl)phenoxy)-3-cyano-N-(5-fluoropyridin-2-yl)benzenesulfonamide; assay type: ADME
[2] = Drug level in human hepatocytes treated with 4-(3-chloro-4-(hydroxymethyl)phenoxy)-3-cyano-N-(5-fluoropyridin-2-yl)benzenesulfonamide; assay type: ADME, cell-based, Hepatocyte
[3] = Plasma clearance in dog at 0.1 mg/kg, iv and 3 mg/kg, po; assay type: ADME, organism-based, Canis lupus familiaris
[4] = Half life in dog at 0.1 mg/kg, iv and 3 mg/kg, po; assay type: ADME, organism-based, Canis lupus familiaris; conditions: in vivo
[5] = Unbound clearance in rat at 1 mg/kg, iv and 3 mg/kg, po; assay type: ADME, organism-based; conditions: in vivo
[6] = Volume of distribution at steady state in rat at 1 mg/kg, iv and 3 mg/kg, po; assay type: ADME, organism-based; conditions: in vivo, read-out: Vdss
[7] = Oral bioavailability in rat at 3 mg/kg; assay type: ADME, organism-based; conditions: in vivo
[8] = Unbound clearance in dog at 0.1 mg/kg, iv and 3 mg/kg, po; assay type: ADME, organism-based, Canis lupus familiaris; conditions: in vivo
[9] = Volume of distribution at steady state in dog at 0.1 mg/kg, iv and 3 mg/kg, po; assay type: ADME, organism-based, Canis lupus familiaris; conditions: in vivo, read-out: Vdss
[10] = Oral bioavailability in dog at 3 mg/kg; assay type: ADME, organism-based, Canis lupus familiaris; conditions: in vivo
[11] = Unbound average plasma concentration in human at >450 mg, bid; assay type: ADME
Homo sapiens = species: Homo sapiens; assay: Reduction in serum ureate in human at >450 mg, bid; assay type: functional; set-up: scale not given: the % may be the effect or the level left
[12] = Lipophilicity, log D of the compound; assay type: physicochemical; conditions: octanol/water

| Drug metabolism [1] | Drug metabolism [2] | clearance [3] [mL/min/kg] | half-life [4] [h] | CL free [5] [mL/min/kg] | Vd [6] [L/kg] | bioavailability [7] [%] | CL free [8] [mL/min/kg] | Vd [9] [L/kg] | bioavailability [10] [%] | Cp(f) [11] [nM] | logD [12] | Structure (SMILES) | Activity (Homo sapiens) [%] |
| --- | --- | --- | --- | --- | --- | --- | --- | --- | --- | --- | --- | --- | --- |
| Metabolite_Detected | Metabolite_Detected |  |  |  |  |  |  |  |  |  |  | N#Cc1cc(S(=O)(=O)Nc2ccc(F)cn2)ccc1Oc1ccc(C(=O)O)c(Cl)c1 |  |
|  |  | 4.8 | 1.4 | 447 | 1.3 | 27 | 641 | 0.31 | 35 | 60 | 2.6 | Nc1[nH]ncc1-c1cc(Cl)ccc1Oc1cc(F)c(S(=O)(=O)Nc2cscn2)cc1Cl [PF-05089771] | 50 |
